According to PubChem BioAssay (NCI):
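Where inhibition never reached the appropriate level, the endpoint shown equals the highest concentration tested. Otherwise, values were interpolated linearly from a five-concentration, 48-hour dose response in 96-well plates. TGI is the concentration that stops growth completely.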

What was measured:
Test in all cases: NCI anticancer screen, dose series, 48 h
HOP-62 NSCLC = system: HOP-62 NSCLC
HCC-2998 colon = system: HCC-2998 colon
NCI-H460 lung = system: NCI-H460 lung
SF-295 CNS = system: SF-295 CNS
OVCAR-4 ovarian = system: OVCAR-4 ovarian
KM12 colon = system: KM12 colon
RXF 393 renal = system: RXF 393 renal
SF-268 CNS = system: SF-268 CNS
SK-MEL-5 melanoma = system: SK-MEL-5 melanoma
TK-10 renal = system: TK-10 renal
786-0 renal = system: 786-0 renal
SNB-19 CNS = system: SNB-19 CNS
SK-MEL-2 melanoma = system: SK-MEL-2 melanoma
SW-620 colon = system: SW-620 colon
DMS 114 small cell lung = system: DMS 114 small cell lung
MALME-3M melanoma = system: MALME-3M melanoma
SR leukemia = system: SR leukemia
MOLT-4 leukemia = system: MOLT-4 leukemia
IGROV1 ovarian = system: IGROV1 ovarian
CAKI-1 renal = system: CAKI-1 renal
OVCAR-5 ovarian = system: OVCAR-5 ovarian
UACC-62 melanoma = system: UACC-62 melanoma
COLO 205 colon = system: COLO 205 colon
K-562 leukemia = system: K-562 leukemia
OVCAR-8 ovarian = system: OVCAR-8 ovarian
A549 NSCLC = system: A549 NSCLC
CCRF-CEM leukemia = system: CCRF-CEM leukemia
SNB-75 CNS = system: SNB-75 CNS
ACHN renal = system: ACHN renal
UO-31 renal = system: UO-31 renal
DMS 273 small cell lung = system: DMS 273 small cell lung
NCI-H522 lung = system: NCI-H522 lung
EKVX NSCLC = system: EKVX NSCLC
DLD-1 colon = system: DLD-1 colon
SK-OV-3 ovarian = system: SK-OV-3 ovarian
M14 melanoma = system: M14 melanoma
LXFL 529 NSCLC = system: LXFL 529 NSCLC
SF-539 CNS = system: SF-539 CNS
SNB-78 CNS = system: SNB-78 CNS
NCI-H226 lung = system: NCI-H226 lung
NCI-H23 lung = system: NCI-H23 lung
SN12C renal = system: SN12C renal
SK-MEL-28 melanoma = system: SK-MEL-28 melanoma
XF 498 CNS = system: XF 498 CNS
OVCAR-3 ovarian = system: OVCAR-3 ovarian
U251 CNS = system: U251 CNS
LOX IMVI melanoma = system: LOX IMVI melanoma
HOP-92 NSCLC = system: HOP-92 NSCLC
HCT-116 colon = system: HCT-116 colon
HT29 colon = system: HT29 colon
A498 renal = system: A498 renal
UACC-257 melanoma = system: UACC-257 melanoma
M19-MEL melanoma = system: M19-MEL melanoma
HCT-15 colon = system: HCT-15 colon
KM20L2 colon = system: KM20L2 colon
RPMI-8226 leukemia = system: RPMI-8226 leukemia

## O=C(Nc1ccccc1-c1nn(CO)c(=S)n(CO)c1=O)C(F)(F)F
HOP-62 NSCLC
  TGI: > 100 µM
HCC-2998 colon
  TGI: > 100 µM
NCI-H460 lung
  TGI: > 100 µM
SF-295 CNS
  TGI: > 100 µM
OVCAR-4 ovarian
  TGI: > 100 µM
KM12 colon
  TGI: > 100 µM
RXF 393 renal
  TGI: > 100 µM
SF-268 CNS
  TGI: > 100 µM
SK-MEL-5 melanoma
  TGI: > 100 µM
TK-10 renal
  TGI: > 100 µM
786-0 renal
  TGI: > 100 µM
SNB-19 CNS
  TGI: > 100 µM
SK-MEL-2 melanoma
  TGI: > 100 µM
SW-620 colon
  TGI: > 100 µM
DMS 114 small cell lung
  TGI: > 100 µM
MALME-3M melanoma
  TGI: > 100 µM
SR leukemia
  TGI: > 100 µM
MOLT-4 leukemia
  TGI: > 100 µM
IGROV1 ovarian
  TGI: > 100 µM
CAKI-1 renal
  TGI: > 100 µM
OVCAR-5 ovarian
  TGI: > 100 µM
UACC-62 melanoma
  TGI: > 100 µM
COLO 205 colon
  TGI: > 100 µM
K-562 leukemia
  TGI: > 100 µM
OVCAR-8 ovarian
  TGI: > 100 µM
A549 NSCLC
  TGI: > 100 µM
CCRF-CEM leukemia
  TGI: > 100 µM
SNB-75 CNS
  TGI: > 100 µM
ACHN renal
  TGI: > 100 µM
UO-31 renal
  TGI: > 100 µM
DMS 273 small cell lung
  TGI: > 100 µM
NCI-H522 lung
  TGI: > 100 µM
EKVX NSCLC
  TGI: > 100 µM
DLD-1 colon
  TGI: > 100 µM
SK-OV-3 ovarian
  TGI: > 100 µM
M14 melanoma
  TGI: > 100 µM
LXFL 529 NSCLC
  TGI: > 100 µM
SF-539 CNS
  TGI: > 100 µM
SNB-78 CNS
  TGI: > 100 µM
NCI-H226 lung
  TGI: > 100 µM
NCI-H23 lung
  TGI: > 100 µM
SN12C renal
  TGI: > 100 µM
SK-MEL-28 melanoma
  TGI: > 100 µM
XF 498 CNS
  TGI: > 100 µM
OVCAR-3 ovarian
  TGI: > 100 µM
U251 CNS
  TGI: > 100 µM
LOX IMVI melanoma
  TGI: > 100 µM
HOP-92 NSCLC
  TGI: > 100 µM
HCT-116 colon
  TGI: > 100 µM
HT29 colon
  TGI: > 100 µM

## N=c1oc2c(O)c(O)ccc2cc1C(N)=O
HOP-62 NSCLC
  TGI: > 100 µM
HCC-2998 colon
  TGI: > 100 µM
NCI-H460 lung
  TGI: > 100 µM
SF-295 CNS
  TGI: 94.5 µM
A498 renal
  TGI: > 100 µM
OVCAR-4 ovarian
  TGI: 31.7 µM
KM12 colon
  TGI: > 100 µM
RXF 393 renal
  TGI: > 100 µM
UACC-257 melanoma
  TGI: > 100 µM
SF-268 CNS
  TGI: > 100 µM
TK-10 renal
  TGI: > 100 µM
786-0 renal
  TGI: 25.3 µM
M19-MEL melanoma
  TGI: 44.8 µM
SNB-19 CNS
  TGI: > 100 µM
SK-MEL-2 melanoma
  TGI: > 100 µM
SW-620 colon
  TGI: 83.4 µM
DMS 114 small cell lung
  TGI: > 100 µM
MALME-3M melanoma
  TGI: > 100 µM
MOLT-4 leukemia
  TGI: 75.2 µM
IGROV1 ovarian
  TGI: > 100 µM
CAKI-1 renal
  TGI: > 100 µM
OVCAR-5 ovarian
  TGI: > 100 µM
UACC-62 melanoma
  TGI: > 100 µM
COLO 205 colon
  TGI: > 100 µM
K-562 leukemia
  TGI: 36.4 µM
HCT-15 colon
  TGI: > 100 µM
OVCAR-8 ovarian
  TGI: 50.9 µM
KM20L2 colon
  TGI: > 100 µM
A549 NSCLC
  TGI: > 100 µM
CCRF-CEM leukemia
  TGI: 47 µM
RPMI-8226 leukemia
  TGI: > 100 µM
SNB-75 CNS
  TGI: 97.6 µM
ACHN renal
  TGI: > 100 µM
UO-31 renal
  TGI: > 100 µM
DMS 273 small cell lung
  TGI: > 100 µM
NCI-H522 lung
  TGI: > 100 µM
EKVX NSCLC
  TGI: > 100 µM
DLD-1 colon
  TGI: > 100 µM
SK-OV-3 ovarian
  TGI: > 100 µM
M14 melanoma
  TGI: > 100 µM
LXFL 529 NSCLC
  TGI: 93.1 µM
SF-539 CNS
  TGI: > 100 µM
SNB-78 CNS
  TGI: > 100 µM
NCI-H226 lung
  TGI: > 100 µM
NCI-H23 lung
  TGI: > 100 µM
SN12C renal
  TGI: > 100 µM
SK-MEL-28 melanoma
  TGI: > 100 µM
XF 498 CNS
  TGI: 53 µM
OVCAR-3 ovarian
  TGI: > 100 µM
U251 CNS
  TGI: > 100 µM
HOP-92 NSCLC
  TGI: > 100 µM
HCT-116 colon
  TGI: > 100 µM
HT29 colon
  TGI: > 100 µM
